These results are taken from PubChem BioAssay (NCI).

Test systems include COLO 205 colon; SF-268 CNS; SNB-75 CNS; SK-MEL-2 melanoma; HCT-116 colon; M14 melanoma; MDA-MB-231 breast; PC-3 prostate; CAKI-1 renal; T-47D breast; A498 renal.
Common to all, as to experiment: NCI-60 cell line screen, 48 h

SMILES strings stand for the structures. Where “and” joins values, the source holds several entries; their conditions need not be identical. Equal values may be shown once.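 In this assay, cells in 96-well plates receive the compound at five concentrations for 48 hours. Endpoints are linearly interpolated between the surrounding concentrations. At the GI50, growth is halved. Definition used: TGI = concentration required for complete inhibition of growth.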

On to `CC(C)(C1=NC(C(C)(C)C)CO1)C1=N[C@@H](C(C)(C)C)CO1` (stereo partly drawn), for which the TGI in the assay with COLO 205 colon, in the assay on SF-268 CNS, with SNB-75 CNS, with SK-MEL-2 melanoma, with HCT-116 colon and in the assay on M14 melanoma was greater than 100 µM throughout.
Consider `C[C@@H]([C@H]1CC[C@@]2(C)[C@@H]3CC[C@@H]4C(=CC3=CC[C@]12C)CC[C@H](N(C)C)C4(C)C)N(C)C`, for which the TGI with MDA-MB-231 breast, with COLO 205 colon, in the assay on PC-3 prostate, with SF-268 CNS, in the assay with CAKI-1 renal and with T-47D breast was greater than 100 µM each time. The TGI with HCT-116 colon and in the assay with M14 melanoma was greater than 100 µM each time.
Take `Cc1c2cc[n+](C)cc2c(C)c2c1[nH]c1ccc(OCC(F)(F)F)cc12`: the GI50 is 47 µM and > 100 µM with A498 renal; 0.837 µM and 0.271 µM with SNB-75 CNS; 5.9 µM in the assay with SK-MEL-2 melanoma; 11.6 µM and > 94.3 µM in the assay on M14 melanoma. Besides, the TGI in the assay on A498 renal was greater than 100 µM; in the assay on SF-268 CNS, 0.638 µM; with CAKI-1 renal it was greater than 64.7 µM; with SNB-75 CNS, 2.62 µM and 0.833 µM; in the assay with SK-MEL-2 melanoma, greater than 100 µM; in the assay on HCT-116 colon it was greater than 100 µM. The molecule also registered a TGI with M14 melanoma greater than 100 µM.
For `CSCSCC(CO)NC(=O)/C=C\c1c(C)[nH]c(=O)[nH]c1=O` (stereo not drawn), the TGI in the assay with COLO 205 colon amounted to 78.9 µM; with A498 renal it was 229 µM; with SF-268 CNS, 112 µM; with CAKI-1 renal it was 33.3 µM; with SNB-75 CNS, 118 µM; with SK-MEL-2 melanoma, 136 µM. In the assay on HCT-116 colon, this molecule yielded a TGI of 96.4 µM. Moreover, in the assay with CAKI-1 renal, the GI50 was 2.04 µM.
In the case of `Cc1cc2ccccc2oc(=O)/c1=N\Nc1ccccc1`, the TGI in the assay on MDA-MB-231 breast is 77.9 µM; with COLO 205 colon, greater than 100 µM; with PC-3 prostate, greater than 100 µM; with A498 renal, greater than 100 µM; with CAKI-1 renal it was greater than 100 µM; in the assay on SNB-75 CNS, 63.8 µM. For the same molecule, the TGI in the assay on SK-MEL-2 melanoma, with HCT-116 colon and in the assay with M14 melanoma was greater than 100 µM in each case.
As to `C=C1c2nc3ccccc3n2C=C(c2ccccc2)N1c1ccc(C)cc1`, the TGI in the assay with MDA-MB-231 breast, in the assay with COLO 205 colon, in the assay on PC-3 prostate, with A498 renal, in the assay with CAKI-1 renal and in the assay on SNB-75 CNS was greater than 100 µM each time. Moreover, the TGI in the assay with SK-MEL-2 melanoma, in the assay with HCT-116 colon and in the assay with M14 melanoma was greater than 100 µM throughout.
In the case of `c1ccc(C2N=C(c3ccccn3)C(c3ccccn3)=NC2c2ccccc2)cc1` (stereo not drawn), the TGI in the assay on COLO 205 colon, in the assay with A498 renal, in the assay on SF-268 CNS, in the assay on CAKI-1 renal, with SK-MEL-2 melanoma and in the assay on HCT-116 colon was greater than 100 µM throughout. In the assay with M14 melanoma, this molecule displayed a TGI greater than 100 µM.
In the case of `COC(=O)c1c(CC(=O)OC(C)C)cc2n(c1=O)Cc1c-2nc2ccccc2c1OC`, the TGI with COLO 205 colon, with A498 renal, with SF-268 CNS, with CAKI-1 renal, with SNB-75 CNS and with SK-MEL-2 melanoma was greater than 100 µM throughout. The TGI with HCT-116 colon and in the assay with M14 melanoma was greater than 100 µM each time.
As for `N/C(=N\N=C/c1c(O)cc(O)cc1O)NO`, the TGI in the assay with COLO 205 colon is greater than 100 µM; with A498 renal, greater than 100 µM; in the assay with SF-268 CNS, greater than 100 µM; with CAKI-1 renal, greater than 100 µM; with SNB-75 CNS, 98.8 µM; with SK-MEL-2 melanoma it was greater than 100 µM. In the assay on HCT-116 colon, this molecule showed a TGI greater than 100 µM.
Regarding `O=c1[nH]c(=S)[nH]c2c1CCCN2`, the TGI in the assay on COLO 205 colon, in the assay with SF-268 CNS, in the assay on CAKI-1 renal, in the assay with SNB-75 CNS, in the assay with SK-MEL-2 melanoma and in the assay with HCT-116 colon was greater than 100 µM in each case. In addition, the TGI in the assay on M14 melanoma was greater than 100 µM.
On to `Cc1ccc(N2Cc3c(ccc4ccccc34)OP2(=S)N2CCCC2)cc1` (stereo not drawn), for which the TGI in the assay with COLO 205 colon, in the assay on A498 renal, in the assay on SF-268 CNS, in the assay on CAKI-1 renal, in the assay with SNB-75 CNS and in the assay on SK-MEL-2 melanoma was greater than 100 µM throughout. The molecule also registered a TGI in the assay on HCT-116 colon greater than 100 µM.
As for `COc1ccc(-c2nc(-c3cnccn3)n(C/C=C/c3ccccc3)n2)cc1`, the TGI is greater than 100 µM with MDA-MB-231 breast; greater than 100 µM in the assay with COLO 205 colon; greater than 100 µM in the assay with PC-3 prostate; 51.7 µM in the assay on SNB-75 CNS; greater than 100 µM in the assay with T-47D breast; greater than 100 µM with HCT-116 colon. Moreover, in the assay on M14 melanoma, the TGI is greater than 100 µM.
On to `CC12CC(c3ccccc3O1)C(C(=O)Nc1nccs1)C(=O)N2` (stereo not drawn), for which the TGI in the assay on MDA-MB-231 breast, with COLO 205 colon, with PC-3 prostate, in the assay with A498 renal, with SF-268 CNS and with CAKI-1 renal was greater than 100 µM in each case. Moreover, the TGI with SNB-75 CNS, in the assay on SK-MEL-2 melanoma, with HCT-116 colon and in the assay with M14 melanoma was greater than 100 µM each time.
Consider `COc1ccc(NCn2nc(CCCCCCCCc3nn(CNc4ccc(OC)cc4)c(=S)o3)oc2=S)cc1`, for which the TGI in the assay on MDA-MB-231 breast, with COLO 205 colon, with PC-3 prostate, in the assay with A498 renal, with SF-268 CNS and with CAKI-1 renal was greater than 100 µM in each case. Besides, the TGI in the assay with SNB-75 CNS, with SK-MEL-2 melanoma, in the assay on HCT-116 colon and in the assay on M14 melanoma was greater than 100 µM throughout.
For the molecule `O=C(NNC(=O)c1ccc(Cl)cc1NC(=O)C12CC3CC(CC(C3)C1)C2)c1ccc(Cl)cc1`, the TGI in the assay on MDA-MB-231 breast was 51.2 µM; in the assay on COLO 205 colon, 27.6 µM; in the assay on PC-3 prostate, 82.4 µM; in the assay with SF-268 CNS it was greater than 100 µM; in the assay on CAKI-1 renal it was 73.6 µM; with T-47D breast it was greater than 100 µM. For the same molecule, the TGI with HCT-116 colon turned out to be 58.1 µM; in the assay on M14 melanoma, 57.6 µM.
`O=Cn1c2ccccc2c2ccccc21`: the TGI with COLO 205 colon, with A498 renal, with SF-268 CNS, with SK-MEL-2 melanoma, in the assay on HCT-116 colon and in the assay on M14 melanoma was greater than 100 µM each time.
As for `COc1cc(/C=C2\N=C(c3ccccc3)N(c3cc4cc(Sc5ccccc5)ccc4[nH]3)C2=O)ccc1O`, the TGI in the assay on COLO 205 colon, with CAKI-1 renal, in the assay with SNB-75 CNS, in the assay with T-47D breast, in the assay with HCT-116 colon and in the assay with M14 melanoma was greater than 50 µM in each case.
Regarding `Oc1c(NCn2nc(CCCCCCCCc3nn(CNc4ccc5ccccc5c4O)c(=S)o3)oc2=S)ccc2ccccc12`, the TGI with MDA-MB-231 breast, with COLO 205 colon, in the assay with PC-3 prostate, with A498 renal, in the assay on SF-268 CNS and in the assay with CAKI-1 renal was greater than 100 µM throughout. Besides, the TGI in the assay on SNB-75 CNS was greater than 100 µM; in the assay with SK-MEL-2 melanoma, greater than 100 µM; in the assay on HCT-116 colon it was 50.4 µM; in the assay with M14 melanoma, greater than 100 µM.
Turning to `CC1(C)CC(=O)C2=C(C1)NC(=S)C(C#N)C2c1ccccc1` (stereo not drawn), the TGI with MDA-MB-231 breast, in the assay with COLO 205 colon, with PC-3 prostate, in the assay on SF-268 CNS, in the assay on CAKI-1 renal and in the assay on SNB-75 CNS was greater than 100 µM throughout. Besides, the TGI in the assay on SK-MEL-2 melanoma, in the assay with HCT-116 colon and with M14 melanoma was greater than 100 µM throughout.
Regarding `CCCCn1c(-c2ccccc2)cs/c1=N\NC(=O)Cn1c(C)nc2ccccc21`, the TGI with COLO 205 colon was 38.2 µM; in the assay with A498 renal, greater than 100 µM; with CAKI-1 renal it was greater than 100 µM; in the assay on SNB-75 CNS, greater than 100 µM; in the assay with SK-MEL-2 melanoma, greater than 100 µM; with HCT-116 colon, greater than 100 µM. In addition, the TGI in the assay on M14 melanoma was greater than 100 µM.
Consider `O=C(CCC(NC(=O)OCc1ccccc1)C(=O)OCc1ccccc1)Nc1cccc(OCc2ccccc2)c1` (stereo not drawn), for which the TGI in the assay with MDA-MB-231 breast was 56.5 µM; in the assay with COLO 205 colon it was 31.9 µM; with PC-3 prostate it was 35.9 µM; in the assay with SF-268 CNS, 71 µM; in the assay with CAKI-1 renal, greater than 100 µM; in the assay on SNB-75 CNS it was greater than 100 µM. For the same molecule, the TGI in the assay on T-47D breast was greater than 100 µM; with HCT-116 colon, 36.4 µM; in the assay with M14 melanoma it was 38.2 µM.
`O=c1cc(-c2ccccc2)oc2cc(OCCCCCCCCCCOc3ccc4c(=O)cc(-c5ccccc5)oc4c3)ccc12`: the TGI in the assay with COLO 205 colon, in the assay on CAKI-1 renal, in the assay on SNB-75 CNS, in the assay with SK-MEL-2 melanoma, with HCT-116 colon and in the assay on M14 melanoma was greater than 100 µM in each case.
As for `C/C(=N/NC(N)=S)C(CN1CCOCC1)C(C1=C(O)c2ccccc2OC1)c1ccccc1` (stereo not drawn), the TGI in the assay with COLO 205 colon, in the assay on A498 renal, in the assay with SF-268 CNS, in the assay with CAKI-1 renal, in the assay with SNB-75 CNS and in the assay on SK-MEL-2 melanoma was greater than 100 µM in each case. Besides, the TGI in the assay with HCT-116 colon and in the assay on M14 melanoma was greater than 100 µM each time.
